What is called melting point is the temperature of the solid-liquid transition.

For the compound `CCCC1CCC(CC(=O)N[C@@H](Cc2cc(F)cc(F)c2)[C@H](O)CNCc2cccc(CC)c2)CC1=O` (stereo partly drawn) [Compound 213, N-{(1S,2R)-1-(3,5-difluorobenzyl)-3-[(3-ethylbenzyl)amino]-2-hydroxypropyl}-2-(3-oxo-4-propylcyclohexyl)acetamide], the melting point was in the range of 52 to 54 °C.
The value for `CCc1cccc(CNC[C@@H](O)[C@H](Cc2cc(F)cc(F)c2)NC(=O)CC2CCCC(=O)C2)c1` (stereo partly drawn) [Compound 214, N-{(1S,2R)-1-(3,5-difluorobenzyl)-3-[(3-ethylbenzyl)amino]-2-hydroxypropyl}-2-(3-oxocyclohexyl)acetamide] was 139.5 to 149.8 °C.
